Source: ChEMBL document CHEMBL1177694, “Multivalent catanionic GalCer analogs derived from first generation dendrimeric phosphonic acids” (Bioorg Med Chem, 2010)

Key:
[1] = test system: Human immunodeficiency virus 1; assay: Antiviral activity against HIV1 LAI infected in human CEM-SS cells assessed as inhibition of viral replication after 5 days by MTT assay; assay type: functional, organism-based; settings: Human immunodeficiency virus 1, LAI, 120 h
[2] = Therapeutic index, ratio of CC50 for human CEM-SS cells to IC50 for HIV1 LAI infected in human CEM-SS cells; assay type: cell-based; settings: CEM-SS cells (uninfected and infected with HIV1 LAI), read-out: Ratio CC50/IC50
[3] = Cytotoxicity against human CEM-SS cells after 5 days by MTT assay; assay type: cell-based

Row | Structure (SMILES) | IC50 [1] | selectivity ratio [2] | CC50 at 120 h [3]
1 | CCCCCCCCCCCCCCCCNOC(CO)C(O)C(OC1OC(CO)C(O)C(O)C1O)C(O)CO.CCCCCCCCCCCCCCCCNOC(CO)C(O)C(OC1OC(CO)C(O)C(O)C1O)C(O)CO.CCCCCCCCCCCCCCCCNOC(CO)C(O)C(OC1OC(CO)C(O)C(O)C1O)C(O)CO.CCCCCCCCCCCCCCCCNOC(CO)C(O)C(OC1OC(CO)C(O)C(O)C1O)C(O)CO.CCCCCCCCCCCCCCCCNOC(CO)C(O)C(OC1OC(CO)C(O)C(O)C1O)C(O)CO.CCCCCCCCCCCCCCCCNOC(CO)C(O)C(OC1OC(CO)C(O)C(O)C1O)C(O)CO.CN(/N=C/c1ccc(OP2(Oc3ccc(/C=N/N(C)P(=S)(Oc4ccc(C(O)P(=O)(O)O)cc4)Oc4ccc(C(O)P(=O)(O)O)cc4)cc3)=NP(Oc3ccc(/C=N/N(C)P(=S)(Oc4ccc(C(O)P(=O)(O)O)cc4)Oc4ccc(C(O)P(=O)(O)O)cc4)cc3)(Oc3ccc(/C=N/N(C)P(=S)(Oc4ccc(C(O)P(=O)(O)O)cc4)Oc4ccc(C(O)P(=O)(O)O)cc4)cc3)=NP(Oc3ccc(/C=N/N(C)P(=S)(Oc4ccc(C(O)P(=O)(O)O)cc4)Oc4ccc(C(O)P(=O)(O)O)cc4)cc3)(Oc3ccc(/C=N/N(C)P(=S)(Oc4ccc(C(O)P(=O)(O)O)cc4)Oc4ccc(C(O)P(=O)(O)O)cc4)cc3)=N2)cc1)P(=S)(Oc1ccc(C(O)P(=O)(O)O)cc1)Oc1ccc(C(O)P(=O)(O)O)cc1 (stereo unspecified) | 210 nM | 4 | 1200 nM
2 | CCCCCCCCCCCCCCCCNOC(CO)C(O)C(OC1OC(CO)C(O)C(O)C1O)C(O)CO.CCCCCCCCCCCCCCCCNOC(CO)C(O)C(OC1OC(CO)C(O)C(O)C1O)C(O)CO.CCCCCCCCCCCCCCCCNOC(CO)C(O)C(OC1OC(CO)C(O)C(O)C1O)C(O)CO.CCCCCCCCCCCCCCCCNOC(CO)C(O)C(OC1OC(CO)C(O)C(O)C1O)C(O)CO.CCCCCCCCCCCCCCCCNOC(CO)C(O)C(OC1OC(CO)C(O)C(O)C1O)C(O)CO.CCCCCCCCCCCCCCCCNOC(CO)C(O)C(OC1OC(CO)C(O)C(O)C1O)C(O)CO.CN(/N=C/c1ccc(OP2(Oc3ccc(/C=N/N(C)P(=S)(Oc4ccc(/C=C/P(=O)(O)O)cc4)Oc4ccc(/C=C/P(=O)(O)O)cc4)cc3)=NP(Oc3ccc(/C=N/N(C)P(=S)(Oc4ccc(/C=C/P(=O)(O)O)cc4)Oc4ccc(/C=C/P(=O)(O)O)cc4)cc3)(Oc3ccc(/C=N/N(C)P(=S)(Oc4ccc(/C=C/P(=O)(O)O)cc4)Oc4ccc(/C=C/P(=O)(O)O)cc4)cc3)=NP(Oc3ccc(/C=N/N(C)P(=S)(Oc4ccc(/C=C/P(=O)(O)O)cc4)Oc4ccc(/C=C/P(=O)(O)O)cc4)cc3)(Oc3ccc(/C=N/N(C)P(=S)(Oc4ccc(/C=C/P(=O)(O)O)cc4)Oc4ccc(/C=C/P(=O)(O)O)cc4)cc3)=N2)cc1)P(=S)(Oc1ccc(/C=C\P(=O)(O)O)cc1)Oc1ccc(/C=C/P(=O)(O)O)cc1 (stereo unspecified) | 250 nM | 6.4 | 1600 nM
